Measured values: PubChem BioAssay AID1626 (SRMLSC, 2009)

System: M. tuberculosis H37Rv growth inhibition
Assay: M. tuberculosis H37Rv growth inhibitors, H37Rv strain (AID 1626)
Conditions: for IC90: measured here: IC90 against H37Rv; for CC50: measured here: Vero cell cytotoxicity

Row | SMILES | IC50 [µM] | IC90 [µM] | CC50 [µM]
1 | Cc1nc(SCc2ccc(F)cc2)c2oc3ccccc3c2n1 | < 0.195 | > 100 | 
2 | O=C(Nc1ccc2c(c1)OCCO2)c1cccc2nc3ccccc3nc12 | < 0.195 | 2.17 | > 40
3 | CCn1c(NC(=O)c2cccs2)nc2ccccc21 | 5.32 | > 100 | 
4 | CCOC(=O)c1c(C)oc2ccc(OC(=O)c3cccs3)cc12 | 2.08 | 13.6 | 
5 | O=C(Nc1ccc(Oc2ccccc2)cc1)C1CC1 | 14 | > 100 | > 40
6 | Nc1c2c(nc3ccc(Br)cc13)N(C1CCCCC1)CC2 | 8.28 | 11.1 | > 40
7 | COc1ccc(C(C[N+](=O)[O-])n2nc(C)cc2C)cc1 (stereo not given) |  |  | > 40
8 | O=C(NC1CCCCC1)C(c1ccc2ncccc2c1)N(Cc1ccccc1)C(=O)c1ccc2c(c1)OCCO2 (stereo not given) | 19 | 28.2 | 
9 | COc1cc2nc(C3CCC3)nc(N3CCN(c4ccccc4OC)CC3)c2cc1OC | 3.9 | 6.52 | > 40
10 | Cc1cc(C)n(C(=O)c2ccc([N+](=O)[O-])cc2[N+](=O)[O-])n1 | 7.05 | 12.6 | 
11 | COc1ccc(C(C(=O)NC2CCCCC2)N(C(=O)c2sc(C)nc2C)c2ccccc2C)cc1 (stereo not given) | 6.96 | 11.4 | > 40
12 | Cc1ccc(-c2nsc(SCC(=O)Nc3ccc4c(c3)OCO4)n2)cc1 | 0.892 | 2.51 | 
13 | Cc1ccc(SC/C(O)=C(\C#N)c2nc3ccccc3n2C)cc1 |  |  | > 40
14 | Cc1cccc(-c2nsc(SCC(=O)NCC3CCCO3)n2)c1 (stereo not given) | 1.19 | 4.2 | 
15 | Cc1ccc(NC(=O)COC(=O)CC2CCCC2)cc1Cl |  | > 100 | 
16 | Cn1c(-c2ccccc2)c(C(=O)CCl)c2ccccc21 | 1.69 | 4.57 | 4.07
17 | CCc1ccc2c(c1)C1(C(=O)N2)N2CCCC2C(C(=O)c2ccc3ccccc3c2)C12C(=O)Nc1ccccc12 (stereo not given) | 2.97 | > 100 | 17.8
18 | Cc1ccc(C)c(-c2cc(C(=O)Nc3sc(C)c(C)c3C(N)=O)c3ccccc3n2)c1 |  |  | > 40
19 | CCOC(=O)CSc1nc2c(c(-c3ccc(C)o3)c1C#N)CCCC2 | 2.36 | 3.53 | 
20 | O=C(OCC(=O)N1CCN(C(=O)c2ccco2)CC1)c1sc2ccccc2c1Cl |  | > 100 | 
21 | O=C(Oc1ccc(Cl)cc1)c1ccc(N2CCOCC2)c([N+](=O)[O-])c1 | 1.46 | 3.16 | 
22 | CC(C)c1ccc(C2C3=C(CC(C)(C)CC3=O)NC3=C2C(=O)c2ccccc23)cc1 (stereo not given) | 50.6 | > 100 | > 40

Row | SMILES | IC50 [µM] | IC90 [µM] | CC50 [µM]
23 | Cn1nc(C(F)(F)F)c(-c2ccc(Br)cc2)c1NC(=O)c1cccnc1 |  | > 100 | > 40
24 | COC(=O)CSc1ccnc2cc(Cl)ccc12 | 4.25 | 12.3 | 
25 | C/C(=C\C(=O)c1ccncc1)Nc1ccccc1O | < 0.195 | 28.2 | > 40
26 | Cc1ccc(N2CCN(C(=O)Nc3cccc([N+](=O)[O-])c3)CC2C)cc1 (stereo not given) | 27.1 | > 100 | > 40
27 | CCNc1nc(NC(C)(C)C)nc(N2CCCCC2)n1 | 16 | 29.5 | > 40
28 | Cn1cnc([N+](=O)[O-])c1S(=O)(=O)c1ccc(Cl)cc1 | 8.35 | 10.7 | 23.4
29 | COc1ccc(N=Cc2c(O)ccc3ccccc23)cc1 |  | > 100 | 
30 | CCOC(=O)CSc1nnc(-c2ccc(NS(=O)(=O)c3ccc(C)cc3)cc2)o1 | 2.27 | 5.26 | 
31 | O=Cc1ccc(-c2ccc(Cl)cc2Cl)[nH]1 | 8.46 | > 100 | 
32 | COC(=O)CSc1nnc(-c2ccc(OC)c(OC)c2)o1 | 1.43 | 5.53 | 
33 | CCCCc1ccc(NC(=O)C2CCCO2)cc1 (stereo not given) | 1.71 | > 100 | 
34 | Cc1nc2cc(C(=O)OCC(=O)NC34CC5CC(CC(C5)C3)C4)ccc2n1-c1ccccc1 | 7.9 | 12.1 | 
35 | CCOC(=O)c1cc(-c2csc(COc3ccc(Cl)cc3)n2)on1 | < 0.195 | 2.41 | 
36 | Brc1ccc(CSc2ncn[nH]2)cc1 | 46.2 | > 100 | > 40
37 | Cc1nc(SCc2ccccc2F)c2oc3ccccc3c2n1 |  | > 100 | 
38 | O=C(/C=C/c1ccccc1O)c1ccc(Cl)cc1 | 14.4 | 24.1 | 27
39 | CCN(CC)c1ccc(N=Cc2c(C)[nH]c3ccccc23)cc1 | 22.1 | 35.1 | > 40
40 | CC(C)(C)c1ccc(C(=O)/C=C2\NC(=O)CS2)cc1 | 11.8 | > 100 | > 40
41 | CCN(CC)c1ccc(N=Cc2ccc([N+](=O)[O-])o2)cc1 | 8.8 | 45.6 | > 40
42 | CC(C)c1ccc(Nc2nnc(SCC(=O)Nc3ncc(S(=O)(=O)c4ccc([N+](=O)[O-])cc4)s3)s2)cc1 | 5.63 | 7.98 | 
43 | CCc1ccc2[nH]c(O)c(N=Nc3nc(-c4ccccc4)cs3)c2c1 | 1.81 | 3.44 | 37
44 | COc1cc2c(cc1OC)C1(Nc3c-2c(-c2ccccc2)nn3-c2ccccc2)C(=O)Nc2ccccc21 (stereo not given) | 7.21 | 13.2 | 23.7
